Measured values reported in patent US9556165B2 (priority 2012, dated 2017).
In brackets after ≈: the same amount, converted by molar mass. Read-outs that look alike come from different tables or passages of the source.

How the values were obtained:
Format in all cases: cell-based
[1] = system: P. aeruginosa 2297 (AmpC wt); test: MIC determination, broth microdilution (CLSI); settings: for MIC: Pseudomonas aeruginosa, strain 7
E. coli ATCC25922 = test: MIC determination, broth microdilution (CLSI); settings: for MIC: Escherichia coli, ATCC25922, strain 1
K. pneumoniae 60 = test: MIC determination, broth microdilution (CLSI); settings: for MIC: Klebsiella pneumoniae, 60, strain 2
P. aeruginosa PAO1 = test: MIC determination, broth microdilution (CLSI); settings: for MIC: Pseudomonas aeruginosa, PAO1, strain 6
M. morganii 126/3048 = test: MIC determination, broth microdilution (CLSI); settings: for MIC: Morganella morganii, 126/3048, strain 5
E. cloacae 34654 = test: MIC determination, broth microdilution (CLSI); settings: for MIC: Enterobacter cloacae, 34654, strain 3
E. coli J62 = test: MIC determination, broth microdilution (CLSI); settings: broth microdilution; for MIC: Escherichia coli, J62, strain 17, read-out: MIC strain 17 (E. coli J62)
[2] = system: P. aeruginosa 2297-con (AmpC derepressed); test: MIC determination, broth microdilution (CLSI); settings: strain 8
S. aureus 133 = test: MIC determination, broth microdilution (CLSI)
S. maltophilia ICB7569 = test: MIC determination, broth microdilution (CLSI); settings: for MIC: Stenotrophomonas maltophilia, ICB7569, strain 10
C. freundii K21/3034 = test: MIC determination, broth microdilution (CLSI); settings: for MIC: Citrobacter freundii, K21/3034, strain 4
A. baumannii ATCC15308 = test: MIC determination, broth microdilution (CLSI); settings: for MIC: Acinetobacter baumannii, ATCC15308, strain 9
E. coli J62-TEM-3 = test: MIC determination, broth microdilution (CLSI); settings: broth microdilution; for MIC: Escherichia coli, J62TEM3, read-out: MIC strain 18 (E. coli J62-TEM-3), strain 18
Bacteria = test: MIC determination in combination with β-lactamase inhibitors (constant 4 μg/mL)
S. pneumoniae 113 = test: MIC determination, broth microdilution (CLSI); settings: Streptococcus pneumoniae, 113, strain 13; broth microdilution; read-out: MIC strain 13 (S. pneumoniae 113)
H. influenzae ATCC 49247 = test: MIC determination, broth microdilution (CLSI); settings: Haemophilus influenzae, ATCC49247, strain 12; broth microdilution; read-out: MIC strain 12 (H. influenzae ATCC 49247)
B. fragilis 6688 = test: MIC determination, broth microdilution (CLSI); settings: Bacteroides fragilis, 6688, strain 15; broth microdilution; read-out: MIC strain 15 (B. fragilis 6688)
[3] = Staphylococcus aureus, 133, strain 14, broth microdilution, read-out: MIC strain 14 (S. aureus 133)
[4] = Staphylococcus aureus, 133, strain 11, read-out: strain 11 MIC

| SMILES | MIC [1] | strain 1 MIC (E. coli ATCC25922) | strain 2 MIC (K. pneumoniae 60) | MIC (P. aeruginosa PAO1) | strain 3 MIC (E. cloacae 34654) | MIC strain 17 (E. coli J62) (E. coli J62) | strain 8 MIC [2] | MIC (S. aureus 133; [3]) | strain 10 MIC (S. maltophilia ICB7569) | strain 4 MIC (C. freundii K21/3034) | MIC (A. baumannii ATCC15308) | MIC strain 18 (E. coli J62-TEM-3) (E. coli J62-TEM-3) | MIC strain 19 (E. coli J62-TEM-3 + 4 μg/mL clavulanic acid) (Bacteria) | MIC strain 20 (E. coli J62-TEM-3 + 4 μg/mL sulbactam) (Bacteria) | MIC strain 21 (E. coli J62-TEM-3 + 4 μg/mL tazobactam) (Bacteria) | MIC (E. coli ATCC25922) | MIC (K. pneumoniae 60) | MIC (M. morganii 126/3048) | MIC (E. cloacae 34654) | MIC (E. coli J62) | other results |
| --- | --- | --- | --- | --- | --- | --- | --- | --- | --- | --- | --- | --- | --- | --- | --- | --- | --- | --- | --- | --- | --- |
| CC1(C)[C@H](NC(=O)/C(=N\OC(CO)COc2ccc(C(=N)N)cc2)c2csc(N)n2)C(=O)N1OS(=O)(=O)O (mixture of isomers) [Example 45A, (2Z)-2-(2-Amino-1,3-thiazol-4-yl)-2-({[(2R and 2S)-1-(4-carbamimidoylphenoxy)-3-hydroxypropan-2-yl]oxy}imino)-N-[(3S)-2,2-dimethyl-4-oxo-1-(sulfooxy)azetidin-3-yl]ethanamide] | 16 µg/mL | 0.5 µg/mL | 0.5 µg/mL | 8 µg/mL | 1 µg/mL | 0.5 µg/mL | 8 µg/mL | 8 µg/mL | 8 µg/mL | 0.25 µg/mL | 2 µg/mL | 1 µg/mL | 0.5 µg/mL | 0.5 µg/mL | 0.5 µg/mL |  |  |  |  |  | strain 5 MIC (M. morganii 126/3048; strain 5): 0.5 µg/mL |
| CC1(C)[C@H](NC(=O)/C(=N\O[C@@H](COc2ccc(C(=N)NC3CC3N)cc2)C(=O)O)c2csc(N)n2)C(=O)N1OS(=O)(=O)O (single isomer, unassigned) [Example 100B] |  | 2 µg/mL | 2 µg/mL |  | 4 µg/mL | 4 µg/mL (≈ 6.24 µM) | 16 µg/mL |  | 32 µg/mL | 2 µg/mL |  | 16 µg/mL (≈ 25 µM) | 2 µg/mL | 2 µg/mL | 2 µg/mL |  |  |  |  |  | strain 7 MIC [1]: 32 µg/mL; strain 6 MIC (P. aeruginosa PAO1; strain 6): 16 µg/mL; strain 9 MIC (A. baumannii ATCC15308; strain 9): 32 µg/mL |
| C[C@H]1[C@H](NC(=O)/C(=N\OCCOc2ccc(C(=N)NNC=O)cc2)c2csc(N)n2)C(=O)N1S(=O)(=O)O [Example 63, (2S,3S)-3-({(2Z)-2-(2-Amino-1,3-thiazol-4-yl)-2-[(2-{4-[(2-formylhydrazinyl)(imino)methyl]phenoxy}ethoxy)imino]acetyl}amino)-2-methyl-4-oxoazetidine-1-sulfonic acid] | 8 µg/mL (≈ 14.4 µM) |  |  | 8 µg/mL (≈ 14.4 µM) |  |  |  | 16 µg/mL (≈ 28.9 µM) |  |  | 16 µg/mL (≈ 28.9 µM) |  | 0.25 µg/mL | 0.5 µg/mL | 0.5 µg/mL | 0.5 µg/mL (≈ 0.902 µM) | 0.25 µg/mL (≈ 0.451 µM) | 0.5 µg/mL (≈ 0.902 µM) | 0.5 µg/mL (≈ 0.902 µM) | 0.5 µg/mL (≈ 0.902 µM) | MIC (S. pneumoniae 113): 0.5 µg/mL (≈ 0.902 µM); MIC (S. aureus 133; [4]): 0.5 µg/mL (≈ 0.902 µM); MIC (S. maltophilia ICB7569): 16 µg/mL (≈ 28.9 µM); MIC (C. freundii K21/3034): 0.25 µg/mL (≈ 0.451 µM); MIC (E. coli J62-TEM-3): 8 µg/mL (≈ 14.4 µM); MIC (H. influenzae ATCC 49247): 0.125 µg/mL (≈ 0.225 µM); MIC (B. fragilis 6688): 16 µg/mL (≈ 28.9 µM) |
| C[C@H]1[C@H](NC(=O)/C(=N\OCCOc2ccc(C(=N)NN)cc2)c2csc(N)n2)C(=O)N1S(=O)(=O)O [Example 64, (2S,3S)-3-({(2Z)-2-(2-Amino-1,3-thiazol-4-yl)-2-[(2-{4-[hydrazinyl(imino)methyl]phenoxy}ethoxy)imino]acetyl}amino)-2-methyl-4-oxoazetidine-1-sulfonic acid] | 16 µg/mL (≈ 30.4 µM) |  |  | 8 µg/mL (≈ 15.2 µM) |  |  |  | 8 µg/mL (≈ 15.2 µM) |  |  | 8 µg/mL (≈ 15.2 µM) |  | 1 µg/mL | 1 µg/mL | 2 µg/mL | 0.5 µg/mL (≈ 0.95 µM) | 0.25 µg/mL (≈ 0.475 µM) | 0.5 µg/mL (≈ 0.95 µM) | 0.5 µg/mL (≈ 0.95 µM) | 1 µg/mL (≈ 1.9 µM) | MIC (S. pneumoniae 113): 32 µg/mL (≈ 60.8 µM); MIC (S. aureus 133; [4]): 16 µg/mL (≈ 30.4 µM); MIC (S. maltophilia ICB7569): 32 µg/mL (≈ 60.8 µM); MIC (C. freundii K21/3034): 0.5 µg/mL (≈ 0.95 µM); MIC (E. coli J62-TEM-3): 32 µg/mL (≈ 60.8 µM); MIC (H. influenzae ATCC 49247): 8 µg/mL (≈ 15.2 µM) |
